Earlier results in US20070060740A1, “Protein crystal” (priority 2002, published 2007).

Tested on: LXR
Conditions: non-steroidal synthetic LXR ligands, background statement; read-out: binding IC50

| IC50 | Structure (SMILES) |
| --- | --- |
| ~10 nM | O=C(O)Cc1cccc(OCCCN(Cc2cccc(C(F)(F)F)c2Cl)CC(c2ccccc2)c2ccccc2)c1 [GW3965, 3-(3-(2-chloro-3-trifluoromethylbenzyl-2,2-diphenylethylamino)propoxy)phenylacetic acid] |
